The results in this text go back to ChEMBL document CHEMBL3392963, “Piperazine derivatives: synthesis, inhibition of the Mycobacterium tuberculosis enoyl-acyl carrier protein reductase and SAR studies” (Eur J Med Chem, 2015).

In assay [1] the target is T1, Enoyl-[acyl-carrier-protein] reductase [NADH] (Mycobacterium tuberculosis, UniProt P9WGR1).
T1 sequence (P9WGR1 whole entry): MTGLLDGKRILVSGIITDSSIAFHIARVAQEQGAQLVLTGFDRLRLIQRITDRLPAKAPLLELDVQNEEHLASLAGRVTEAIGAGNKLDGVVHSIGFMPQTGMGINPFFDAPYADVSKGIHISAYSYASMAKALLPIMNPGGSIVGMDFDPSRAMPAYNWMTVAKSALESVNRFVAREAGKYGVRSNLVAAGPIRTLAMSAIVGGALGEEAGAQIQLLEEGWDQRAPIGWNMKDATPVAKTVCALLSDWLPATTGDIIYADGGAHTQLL
Kind of assay: Inhibition of Mycobacterium tuberculosis recombinant InhA assessed as NADH oxidation to NAD+ using 2-trans-dodecenoyl-CoA substrate by UV/visible spectrophotometry.

Assay [2] concerns Mycobacterium tuberculosis. Briefly: Antimycobacterial activity against Mycobacterium tuberculosis H37Rv assessed as inhibition of mycobacterial growth after 7 days by REMA method. Particulars: 168 h.
Assay [3] has as its target T2, Enoyl-[acyl-carrier-protein] reductase [NADH] (Mycobacterium tuberculosis) (UniProt P9WGR1).
T2 sequence (whole entry): T1 sequence (P9WGR1 whole entry)
Description: Inhibition of Mycobacterium tuberculosis recombinant InhA assessed as NADH oxidation to NAD+ at 0.2 uM using 2-trans-dodecenoyl-CoA substrate measured up to 30 mins by UV/visible spectrophotometry

For assay [4], the target named is T2, Enoyl-[acyl-carrier-protein] reductase [NADH] (Mycobacterium tuberculosis). This is another data set of the same source.
Description: Uncompetitive inhibition of Mycobacterium tuberculosis recombinant InhA assessed as inhibitory dissociation constant for the enzyme-substrate-inhibitor complex by measuring NADH oxidation to NAD+ using fixed 2-trans-dodecenoyl-CoA substrate and varying NADH levels by UV/visible spectrophotometry
The target is the same in assay [5]. This is another data set of the same source.
Description: Non-competitive inhibition of Mycobacterium tuberculosis recombinant InhA assessed as inhibitory dissociation constant for the enzyme-inhibitor complex by measuring NADH oxidation to NAD+ using varying 2-trans-dodecenoyl-CoA substrate and fixed NADH levels by UV/visible spectrophotometry
The target is the same in assay [6]. This is another data set of the same source.
Description: Non-competitive inhibition of Mycobacterium tuberculosis recombinant InhA assessed as inhibitory dissociation constant for the enzyme-substrate-inhibitor complex by measuring NADH oxidation to NAD+ using varying 2-trans-dodecenoyl-CoA substrate and fixed NADH levels by UV/visible spectrophotometry
Assay [7] shares this target. The source holds these as a separate data set.
Description: Competitive inhibition of Mycobacterium tuberculosis recombinant InhA assessed as inhibitory dissociation constant for the enzyme-inhibitor complex by measuring NADH oxidation to NAD+ using varying 2-trans-dodecenoyl-CoA substrate and fixed NADH levels by UV/visible spectrophotometry

≈ marks a conversion by molar mass, not a printed value. Calls of active or inactive are those of the source. The calls are words filed in the database; no cut-off is given here.

With `O=C(c1ccccc1)N1CCN(C2c3ccccc3-c3ccccc32)CC1`, the IC50 in assay [1] is 0.183 µM. In addition, the MIC in assay [2] was more than 35.2 µM.
Take `COc1ccc(C(=O)N2CCN(C(c3ccccc3)c3ccccc3)CC2)cc1`: the IC50 in assay [1] was more than 50 µM.
Turning to `O=C(c1ccncc1)N1CCN(C2c3ccccc3-c3ccccc32)CC1`, the IC50 in assay [1] worked out at 9.77 µM.
For the molecule `O=C(c1cc(F)ccc1F)N1CCN(C2c3ccccc3-c3ccccc32)CC1`, the IC50 in assay [1] worked out at 1.57 µM. The minimum inhibitory concentration (MIC) in assay [2] is more than 15.3 µM. For the same molecule, the TDI entry in assay [3] is “inactive”. Besides, the Kii in assay [4] was 1.28 µM; in assay [6], 3.25 µM. For the same molecule, in assay [5], the Kis was found to be 0.788 µM.
On to `O=C(c1ccc(F)cc1)N1CCN(C(c2ccccc2)c2ccccc2)CC1`, for which, in assay [1], the IC50 was more than 50 µM.
As for `Cc1ccccc1S(=O)(=O)N1CCN(C2c3ccccc3-c3ccccc32)CC1`, the IC50 in assay [1] was more than 50 µM.
Take `Cc1ccc(C(=O)N2CCN(C3c4ccccc4-c4ccccc43)CC2)cc1`: the IC50 in assay [1] came out at 0.222 µM. Also, the MIC in assay [2] turned out to be 67.8 µM (≈ 25 µg/mL).
On to `O=C(c1cc(F)ccc1F)N1CCN(C(c2ccccc2)c2ccccc2)CC1`, for which the IC50 in assay [1] was more than 50 µM.
On to `O=C(c1ccccc1)N1CCN(C(c2ccccc2)c2ccccc2)CC1`, for which the IC50 in assay [1] is 16 µM.
Consider `O=C(/C=C/c1ccccc1)N1CCN(C2c3ccccc3-c3ccccc32)CC1`, for which the IC50 in assay [1] was more than 50 µM.
Turning to `c1ccc(CN2CCN(C3c4ccccc4-c4ccccc43)CC2)cc1`, the 50% inhibitory concentration (IC50) in assay [1] is more than 50 µM.
On to `O=C(CN1CCN(C2c3ccccc3-c3ccccc32)CC1)Nc1ccccc1`, for which the IC50 in assay [1] is more than 50 µM.
As to `O=C(c1ccc([N+](=O)[O-])cc1)N1CCN(C2c3ccccc3-c3ccccc32)CC1`, in assay [1], the IC50 was more than 50 µM.
Same read-out and setting: under `Cc1ccc(C(=O)N2CCN(C(c3ccccc3)c3ccccc3)CC2)cc1` stands 7.83 µM; under `O=C(/C=C/c1ccccc1)N1CCN(C(c2ccccc2)c2ccccc2)CC1`, more than 50 µM.
As to `O=C(c1ccc(F)cc1)N1CCN(C2c3ccccc3-c3ccccc32)CC1`, the half-inhibitory concentration (IC50) in assay [1] was found to be 0.397 µM. Also, the MIC in assay [2] stood at 67.8 µM (≈ 25.3 µg/mL). In addition, the TDI entry in assay [3] was “inactive”. This molecule yielded a Kii in assay [4] of 0.348 µM. In addition, the Kis in assay [7] was 0.338 µM.
For `Cc1ccccc1C(=O)N1CCN(C2c3ccccc3-c3ccccc32)CC1`, the IC50 in assay [1] was determined as 5.99 µM.
As for `O=S(=O)(c1ccccc1)N1CCN(C2c3ccccc3-c3ccccc32)CC1`, the 50% inhibitory concentration (IC50) in assay [1] was 20 µM.
`O=C(c1cccc(F)c1)N1CCN(C2c3ccccc3-c3ccccc32)CC1`: the half-inhibitory concentration (IC50) in assay [1] was 0.24 µM. Further, the MIC in assay [2] is more than 16.1 µM. The TDI entry in assay [3] is “inactive”. In assay [4], this molecule registered a Kii of 0.147 µM. Besides, in assay [7], the Kis was 0.118 µM.
Turning to `COc1ccc(C(=O)N2CCN(C3c4ccccc4-c4ccccc43)CC2)cc1`, the IC50 in assay [1] stood at 2.9 µM. For the same molecule, the TDI result in assay [3] was “inactive”. In addition, the Kii stood at 1.95 µM in assay [4] and 7.22 µM in assay [6]. The same molecule registered a Kis in assay [5] of 1.6 µM.
As for `Cc1cccc(C(=O)N2CCN(C3c4ccccc4-c4ccccc43)CC2)c1`, the IC50 in assay [1] came to 0.25 µM. Also, the MIC in assay [2] was more than 16.2 µM. In assay [3], the TDI result was “inactive”. Also, the Kii in assay [4] is 0.185 µM; in assay [6], 0.348 µM. In assay [5], this molecule yielded a Kis of 0.162 µM.
`O=C(c1ccc(Cl)cc1)N1CCN(C2c3ccccc3-c3ccccc32)CC1`: in assay [1], the IC50 was 1.69 µM. For the same molecule, in assay [3], the TDI result is “inactive”. Besides, the Kii was 1.12 µM in assay [4] and 2 µM in assay [6]. The Kis in assay [5] stood at 2.77 µM.
Turning to `O=C(c1ccc(Cl)cc1)N1CCN(C(c2ccccc2)c2ccccc2)CC1`, the IC50 in assay [1] is more than 50 µM.
The same measure, in the same setting: for `O=S(=O)(c1ccccc1)N1CCN(C(c2ccccc2)c2ccccc2)CC1` the value was more than 50 µM.
As for `O=C(c1ccccc1F)N1CCN(C2c3ccccc3-c3ccccc32)CC1`, the IC50 in assay [1] is 0.361 µM. The minimum inhibitory concentration (MIC) in assay [2] is more than 16.1 µM. For the same molecule, the TDI entry in assay [3] is “inactive”. Besides, the Kii in assay [4] stood at 0.332 µM; in assay [6] it was 0.66 µM. In addition, the Kis in assay [5] turned out to be 0.149 µM.
